Measurements from PMC12888869, “A short antimicrobial peptides family demonstrates efficacy to infection via a multimodal mechanism of action” (Antimicrobial Agents and Chemotherapy, 2025).
Where two headings read alike, the source gives them in different places. No end group written: not given here.

Legend:
S. aureus (ATCC 6538) = format: cell-based, Staphylococcus aureus
Procedure: (§1) Two MDR bacteria, MDR-E. coli (LZ-7, drug resistance: compound sulfamethoxazole, ampicillin, gentamicin, ciprofloxacin, levofloxacin) and MDR-A. baumannii (AB-29, drug resistance: 11 kinds of antibiotics including cephalosporins), along with three pathogenic bacteria, E. coli (ATCC 25922), S. aureus (ATCC 6538), and A. baumannii (309-14) were included in the study. A single colony of each bacterium was cultured in Luria-Bertani (LB) medium at 37°C and 180 rpm for 12–16 h until the logarithmic growth phase for use.
(§2) The MIC of the peptides against a range of bacteria was determined using the microbroth dilution method with slight modifications ([62]). In brief, the bacteria mentioned above were dispersed in the LB (10^5 CFU mL^−1) and were mixed with gradient concentrations (0.25 μM–16 μM) of SAMPs in the 96-well plate (n = 3). After incubation at 37°C for 16–18 h, the absorbance at 600 nm was measured using a microplate reader (Thermo Fisher Scientific, Multiskan MK3, China). The lowest peptide concentration with no absorbance increase was defined as the MICs. The bacterial solution in the 96-well plate was then transferred to solid LB medium to culture single colonies (n = 3), and the lowest peptide concentration at which almost no colonies survive (less than 0.01%) was defined as the MBCs.

[1] = system: S. aureus, E. coli, A. baumannii, MDR-E. coli, MDR-A. baumannii; format: cell-based
Procedure: as §1, §2

MDR-A. baumannii (AB-29) = format: cell-based, Acinetobacter baumannii
Procedure: as §1, §2

A. baumannii (309-14) = format: cell-based, Acinetobacter baumannii
Procedure: as §1, §2

E. coli (ATCC 25922) = format: cell-based, Escherichia coli
Procedure: as §1, §2

MDR-E. coli (LZ-7) = format: cell-based, Escherichia coli
Procedure: as §1, §2

E. coli = format: cell-based, Escherichia coli; conditions: 12 h
Procedure: as §2
(§3) Based on previous methods, stability was analyzed by monitoring the changes in the antimicrobial efficacy of SAMPs in the presence of salts and serum ([37], [38]). The SAMPs underwent incubation with physiological salts (150 mM NaCl, 4.5 mM KCl) or serum at 37°C for 12 h, followed by measurement of their MICs using the previously outlined method (n = 3).

S. aureus = format: cell-based, Staphylococcus aureus; conditions: 12 h
Procedure: as §2, §3

S. aureus and E. coli = experiment: Drug resistance assay (serial passage); format: cell-based; conditions: Colistin E 4 μg mL−1, 30 days
Procedure: The evaluation of drug resistance in SAMPs was performed through MIC value detection ([74]). Resistance was defined as a greater than fourfold increase in the MIC from its initial value. S. aureus and E. coli grown in LB medium supplemented with 0.5 × MIC of each SAMP were repeated for 30 days, followed by determination of MIC values using the same methodology outlined above (n = 3). Meanwhile, Colistin E (4 μg mL^-1) was used as the control group to induce bacterial resistance in the same way.

FLALALIQEAIAKLK-NH2 [FA, Kassporin-KS1, reference compound]
MBC (S. aureus (ATCC 6538); ATCC 6538): >128 µM | MIC (S. aureus (ATCC 6538); ATCC 6538): >32 µM | MIC, three prevalent pathogenic bacteria [1]: > 32 µM | MBC (MDR-A. baumannii (AB-29); MDR- (AB-29)): >128 µM | MIC (MDR-A. baumannii (AB-29); MDR- (AB-29)): >32 µM | MBC (A. baumannii (309-14); 309-14): >128 µM | MIC (A. baumannii (309-14); 309-14): >32 µM | MBC (E. coli (ATCC 25922); ATCC 25922): >128 µM | MIC (E. coli (ATCC 25922); ATCC 25922): >32 µM | MBC (MDR-E. coli (LZ-7); MDR- (LZ-7)): >128 µM | MIC (MDR-E. coli (LZ-7); MDR- (LZ-7)): >32 µM

FLKLRLWKKLLWKLK-NH2 [KK]
MIC after treatment, KCl (E. coli): 0.5 µM | MIC after treatment, NaCl (E. coli): 1 µM | MIC after treatment, Serum (E. coli): 0.5 µM | MBC (S. aureus (ATCC 6538); ATCC 6538): 2 µM | MIC (S. aureus (ATCC 6538); ATCC 6538): 0.5 µM | MBC (MDR-A. baumannii (AB-29); MDR- (AB-29)): 1 µM | MIC (MDR-A. baumannii (AB-29); MDR- (AB-29)): 0.5 µM | MBC (A. baumannii (309-14); 309-14): 1 µM | MIC (A. baumannii (309-14); 309-14): 0.5 µM | MBC (E. coli (ATCC 25922); ATCC 25922): 4 µM | MIC (E. coli (ATCC 25922); ATCC 25922): 0.5 µM | MBC (MDR-E. coli (LZ-7); MDR- (LZ-7)): 8 µM | MIC (MDR-E. coli (LZ-7); MDR- (LZ-7)): 2 µM | MIC after treatment, KCl (S. aureus): 0.5 µM | MIC after treatment, NaCl (S. aureus): 1 µM | MIC after treatment, Serum (S. aureus): 0.5 µM

FLKLRLWRRLLWKLK-NH2 [RR]
MIC after treatment, KCl (E. coli): 0.5 µM | MIC after treatment, NaCl (E. coli): 1 µM | MIC after treatment, Serum (E. coli): 0.5 µM | MBC (S. aureus (ATCC 6538); ATCC 6538): 2 µM | MIC (S. aureus (ATCC 6538); ATCC 6538): 0.5 µM | MBC (MDR-A. baumannii (AB-29); MDR- (AB-29)): 2 µM | MIC (MDR-A. baumannii (AB-29); MDR- (AB-29)): 0.5 µM | MBC (A. baumannii (309-14); 309-14): 1 µM | MIC (A. baumannii (309-14); 309-14): 1 µM | MBC (E. coli (ATCC 25922); ATCC 25922): 2 µM | MIC (E. coli (ATCC 25922); ATCC 25922): 0.5 µM | MBC (MDR-E. coli (LZ-7); MDR- (LZ-7)): 8 µM | MIC (MDR-E. coli (LZ-7); MDR- (LZ-7)): 2 µM | MIC after treatment, KCl (S. aureus): 0.5 µM | MIC after treatment, NaCl (S. aureus): 0.5 µM | MIC after treatment, Serum (S. aureus): 0.5 µM

FLKLRLWGRLLWKLK-NH2 [GR]
MIC after treatment, KCl (E. coli): 2 µM | MIC after treatment, NaCl (E. coli): 2 µM | MIC after treatment, Serum (E. coli): 2 µM | MBC (S. aureus (ATCC 6538); ATCC 6538): 2 µM | MIC (S. aureus (ATCC 6538); ATCC 6538): 1 µM | MBC (MDR-A. baumannii (AB-29); MDR- (AB-29)): 2 µM | MIC (MDR-A. baumannii (AB-29); MDR- (AB-29)): 0.5 µM | MBC (A. baumannii (309-14); 309-14): 2 µM | MIC (A. baumannii (309-14); 309-14): 2 µM | MBC (E. coli (ATCC 25922); ATCC 25922): 8 µM | MIC (E. coli (ATCC 25922); ATCC 25922): 2 µM | MBC (MDR-E. coli (LZ-7); MDR- (LZ-7)): 16 µM | MIC (MDR-E. coli (LZ-7); MDR- (LZ-7)): 16 µM | MIC after treatment, KCl (S. aureus): 1 µM | MIC after treatment, NaCl (S. aureus): 1 µM | MIC after treatment, Serum (S. aureus): 1 µM

FLKLRLWGKLLWKLK-NH2 [GK]
MIC after treatment, KCl (E. coli): 2 µM | MIC after treatment, NaCl (E. coli): 2 µM | MIC after treatment, Serum (E. coli): 2 µM | MBC (S. aureus (ATCC 6538); ATCC 6538): 2 µM | MIC (S. aureus (ATCC 6538); ATCC 6538): 1 µM | MBC (MDR-A. baumannii (AB-29); MDR- (AB-29)): 4 µM | MIC (MDR-A. baumannii (AB-29); MDR- (AB-29)): 1 µM | MBC (A. baumannii (309-14); 309-14): 4 µM | MIC (A. baumannii (309-14); 309-14): 2 µM | MBC (E. coli (ATCC 25922); ATCC 25922): 8 µM | MIC (E. coli (ATCC 25922); ATCC 25922): 2 µM | MBC (MDR-E. coli (LZ-7); MDR- (LZ-7)): 16 µM | MIC (MDR-E. coli (LZ-7); MDR- (LZ-7)): 16 µM | MIC after treatment, KCl (S. aureus): 1 µM | MIC after treatment, NaCl (S. aureus): 1 µM | MIC after treatment, Serum (S. aureus): 1 µM

Colistin E [reference compound]
antimicrobial activity after resistance induction (S. aureus and E. coli): significant decrease in the antimicrobial activity | MIC (S. aureus (ATCC 6538); S. aureus, microbroth dilution in LB, 10^5 CFU mL−1, 37°C, 16–18 h, absorbance 600 nm, n = 3): >256 µM | MIC (MDR-A. baumannii (AB-29); MDR-A. baumannii, microbroth dilution in LB, 10^5 CFU mL−1, 37°C, 16–18 h, absorbance 600 nm, n = 3): 128 µM | MIC (A. baumannii (309-14); A. baumannii, microbroth dilution in LB, 10^5 CFU mL−1, 37°C, 16–18 h, absorbance 600 nm, n = 3): 32 µM | MIC (E. coli (ATCC 25922); E. coli, microbroth dilution in LB, 10^5 CFU mL−1, 37°C, 16–18 h, absorbance 600 nm, n = 3): 256 µM | MIC (MDR-E. coli (LZ-7); MDR-E. coli, microbroth dilution in LB, 10^5 CFU mL−1, 37°C, 16–18 h, absorbance 600 nm, n = 3): >256 µM

FLKLRLWRKLLWKLK-NH2 [RK]
MIC after treatment, KCl (E. coli): 0.25 µM | MIC after treatment, NaCl (E. coli): 0.25 µM | MIC after treatment, Serum (E. coli): 0.25 µM | MBC (S. aureus (ATCC 6538); ATCC 6538): 1 µM | MIC (S. aureus (ATCC 6538); ATCC 6538): 0.25 µM | MIC, common pathogenic bacteria and MDR bacteria [1]: 0.25 to 2 µM | MBC (MDR-A. baumannii (AB-29); MDR- (AB-29)): 0.5 µM | MIC (MDR-A. baumannii (AB-29); MDR- (AB-29)): 0.25 µM | MBC (A. baumannii (309-14); 309-14): 0.5 µM | MIC (A. baumannii (309-14); 309-14): 0.5 µM | MBC (E. coli (ATCC 25922); ATCC 25922): 1 µM | MIC (E. coli (ATCC 25922); ATCC 25922): 0.25 µM | MBC (MDR-E. coli (LZ-7); MDR- (LZ-7)): 4 µM | MIC (MDR-E. coli (LZ-7); MDR- (LZ-7)): 2 µM | MIC after treatment, KCl (S. aureus): 0.25 µM | MIC after treatment, NaCl (S. aureus): 0.25 µM | MIC after treatment, Serum (S. aureus): 0.25 µM

FLKLRLWKRLLWKLK-NH2 [KR]
MIC after treatment, KCl (E. coli): 0.25 µM | MIC after treatment, NaCl (E. coli): 0.25 µM | MIC after treatment, Serum (E. coli): 0.25 µM | MBC (S. aureus (ATCC 6538); ATCC 6538): 0.5 µM | MIC (S. aureus (ATCC 6538); ATCC 6538): 0.25 µM | MIC, common pathogenic bacteria and MDR bacteria [1]: 0.25 to 2 µM | MBC (MDR-A. baumannii (AB-29); MDR- (AB-29)): 0.25 µM | MIC (MDR-A. baumannii (AB-29); MDR- (AB-29)): 0.25 µM | MBC (A. baumannii (309-14); 309-14): 0.25 µM | MIC (A. baumannii (309-14); 309-14): 0.25 µM | MBC (E. coli (ATCC 25922); ATCC 25922): 0.5 µM | MIC (E. coli (ATCC 25922); ATCC 25922): 0.25 µM | MBC (MDR-E. coli (LZ-7); MDR- (LZ-7)): 4 µM | MIC (MDR-E. coli (LZ-7); MDR- (LZ-7)): 1 µM | MIC after treatment, KCl (S. aureus): 0.25 µM | MIC after treatment, NaCl (S. aureus): 0.25 µM | MIC after treatment, Serum (S. aureus): 0.25 µM
